For orientation: IC50 means the concentration at which inhibition is half-maximal. The term pIC50 denotes −log10 of the IC50, conventionally taken in molar units. The IC90 is the concentration at which the effect reaches the 90% level. Usually MIC stands for the smallest concentration in the dilution series that meets the test's criterion for growth inhibition.

The structures appear in SMILES notation. pIC50: −log10 of the molar value. Values after ≈ are worked out from the molar mass of the structure shown. Some results are limits rather than exact numbers.

The results in this text go back to ChEMBL document CHEMBL4020795, “One-pot microwave assisted stereoselective synthesis of novel dihydro-2'H-spiro[indene-2,1'-pyrrolo-[3,4-c]pyrrole]-tetraones and evaluation of their antimycobacterial activity and inhibition of AChE” (Bioorg Med Chem Lett, 2017).

The subject of one test is Vero. Kind of test: Cytotoxicity against monkey Vero cells assessed as decrease in cell viability after 72 hrs by MTT assay. In kind it is cell-based. The settings on record: Chlorocebus sabaeus.
Test [1] has as its system Mycobacterium tuberculosis. Kind of test: Antimicrobial activity against Mycobacterium tuberculosis H37Rv by Alamar blue assay. In kind it is functional. For orientation: Resazurin is reduced to fluorescent resorufin, in cell work by metabolically active cells.
In the next test the target is Acetylcholinesterase (Homo sapiens, UniProt P22303). Kind of test: Inhibition of AChE (unknown origin) using […] as substrate preincubated for 15 mins followed by substrate addition measured every minute by spectrophotometric analysis.
Sequence of Acetylcholinesterase (P22303 whole entry): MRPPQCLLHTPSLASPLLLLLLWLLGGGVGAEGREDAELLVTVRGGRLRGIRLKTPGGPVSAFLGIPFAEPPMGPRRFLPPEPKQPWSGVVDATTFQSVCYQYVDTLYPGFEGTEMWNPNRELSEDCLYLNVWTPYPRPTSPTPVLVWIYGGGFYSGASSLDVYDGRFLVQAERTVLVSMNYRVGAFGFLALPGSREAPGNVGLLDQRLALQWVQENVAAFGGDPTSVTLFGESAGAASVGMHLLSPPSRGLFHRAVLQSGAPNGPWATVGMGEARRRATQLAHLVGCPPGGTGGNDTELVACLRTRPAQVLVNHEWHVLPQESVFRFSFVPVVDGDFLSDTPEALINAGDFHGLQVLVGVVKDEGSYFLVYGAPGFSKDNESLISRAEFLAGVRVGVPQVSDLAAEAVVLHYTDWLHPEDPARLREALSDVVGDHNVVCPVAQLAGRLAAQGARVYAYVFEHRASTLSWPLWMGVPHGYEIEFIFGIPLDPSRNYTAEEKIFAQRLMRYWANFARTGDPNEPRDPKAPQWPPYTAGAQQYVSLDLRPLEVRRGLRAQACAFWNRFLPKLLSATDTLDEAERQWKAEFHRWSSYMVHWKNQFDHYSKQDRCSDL
The test system of test [2] is Mycobacterium tuberculosis. Kind of test: Potency index, ratio of cycloserine IC50 to test compound IC50 for Mycobacterium tuberculosis H37Rv. In kind it is functional.
Test [3] has as its system Mycobacterium tuberculosis. Kind of test: Potency index, ratio of pyrimethamine IC50 to test compound IC50 for Mycobacterium tuberculosis H37Rv. The format is functional.

`CN1CC2C(=O)N(Cc3ccccc3)C(=O)C2C12C(=O)c1ccccc1C2=O` (stereo not given): the IC50 in the test on Vero was more than 6.25 µg/mL. For the same compound, in test [1], the pIC50 was 4.26, the IC90 came to 96.4 µM and the MIC amounted to 100 µM (≈ 37.4 µg/mL). This compound showed a pIC50 on Acetylcholinesterase of 4.39.

`COc1ccccc1N1C(=O)C2CN(C)C3(C(=O)c4ccccc4C3=O)C2C1=O` (stereo not given): the IC50 in the test with Vero was more than 6.25 µg/mL. Besides, in test [1], the pIC50 was 4.55, the IC90 is 46.5 µM and the MIC amounted to 50 µM (≈ 19.5 µg/mL). The compound also showed a pIC50 at Acetylcholinesterase of 4.95.

As to `CCc1ccc(N2C(=O)C3CN(C)C4(C(=O)c5ccccc5C4=O)C3C2=O)cc1` (stereo not given), the IC50 with Vero was more than 6.25 µg/mL. In test [1], this compound had a pIC50 of 4.66, an IC90 of 47.9 µM and an MIC of 50 µM (≈ 19.4 µg/mL). Besides, on Acetylcholinesterase, the pIC50 is 4.35.

With `CN1CC2C(=O)N(c3ccc(F)cc3)C(=O)C2C12C(=O)c1ccccc1C2=O` (stereo not given), the IC50 with Vero was more than 6.25 µg/mL. In test [1], this compound had a pIC50 of 5.66, an IC90 of 7.86 µM and an MIC of 50 µM (≈ 18.9 µg/mL). At Acetylcholinesterase, this compound gave a pIC50 of 4.30.

For the compound `COc1ccc(N2C(=O)C3CN(C)C4(C(=O)c5ccccc5C4=O)C3C2=O)cc1` (stereo not given), the IC50 in the test with Vero was more than 6.25 µg/mL. In test [1], this compound gave a pIC50 of 4.76, an IC90 of 35.5 µM and an MIC of 50 µM (≈ 19.5 µg/mL). At Acetylcholinesterase, this compound gave a pIC50 of 6.11.

Consider `CN1CC2C(=O)N(c3ccccc3)C(=O)C2C12C(=O)c1ccccc1C2=O` (stereo not given), for which the IC50 in the test on Vero was more than 6.25 µg/mL. In test [1], this compound showed a pIC50 of 4.88, an IC90 of 25.9 µM and an MIC of 50 µM (≈ 18 µg/mL). The pIC50 on Acetylcholinesterase is 4.16.

With `CN1CC2C(=O)N(c3cccc(F)c3)C(=O)C2C12C(=O)c1ccccc1C2=O` (stereo not given), the IC50 in the test on Vero is more than 6.25 µg/mL. In addition, in test [1], the pIC50 is 4.54, the IC90 came to 47.7 µM and the minimum inhibitory concentration (MIC) is 50 µM (≈ 18.9 µg/mL). At Acetylcholinesterase, the pIC50 is 4.10.

Regarding `CN1C(=O)C2CN(C)C3(C(=O)c4ccccc4C3=O)C2C1=O` (stereo not given), the IC50 in the test on Vero is more than 6.25 µg/mL. In addition, in test [1], the pIC50 is 4.64, the IC90 was determined as 34.6 µM and the MIC turned out to be 50 µM (≈ 14.9 µg/mL). In addition, the pIC50 at Acetylcholinesterase is 5.68.

For `CN1CC2C(=O)N(C3CCCCC3)C(=O)C2C12C(=O)c1ccccc1C2=O` (stereo not given), the IC50 with Vero was more than 6.25 µg/mL. Besides, in test [1], the pIC50 was 4.80, the 90% effect level (IC90) was put at 34.6 µM and it took 100 µM (≈ 36.6 µg/mL) to inhibit growth (MIC). The pIC50 against Acetylcholinesterase is 5.39.

As to `Cc1ccc(N2C(=O)C3CN(C)C4(C(=O)c5ccccc5C4=O)C3C2=O)cc1` (stereo not given), in the test on Vero, the concentration for half-maximal inhibition (IC50) was more than 6.25 µg/mL. In test [1], this compound showed a pIC50 of 4.40, an IC90 of 71.9 µM and a minimum inhibitory concentration (MIC) of 100 µM (≈ 37.4 µg/mL). On Acetylcholinesterase, this compound had a pIC50 of 5.13.

For `CC(C)c1ccc(N2C(=O)C3CN(C)C4(C(=O)c5ccccc5C4=O)C3C2=O)cc1` (stereo not given), in the test with Vero, the IC50 is more than 6.25 µg/mL. In test [1], this compound had a pIC50 of 4.55, an IC90 of 52.4 µM and an MIC of 100 µM (≈ 40.2 µg/mL). This compound showed a pIC50 at Acetylcholinesterase of 4.91.

For the compound `CN1CC2C(=O)N(c3ccc(Br)cc3)C(=O)C2C12C(=O)c1ccccc1C2=O` (stereo not given), the IC50 in the test with Vero was more than 6.25 µg/mL. In test [1], the pIC50 is 4.96, the 90% effect level (IC90) was put at 22 µM and the MIC worked out at 50 µM (≈ 22 µg/mL). The compound further had a pIC50 against Acetylcholinesterase of 4.13.

On to `CN1CC2C(=O)N(c3ccc(Cl)cc3)C(=O)C2C12C(=O)c1ccccc1C2=O` (stereo not given), for which the concentration for half-maximal inhibition (IC50) in the test on Vero was more than 6.25 µg/mL. Moreover, the pIC50 in test [1] is 5.89; on Acetylcholinesterase it was 4.56. The 90% effect level in test [1] (IC90) was put at 5.3 µM. For the same compound, the MIC in test [1] was 25 µM (≈ 9.87 µg/mL). Further, the “Ratio IC50” value in test [2] was found to be 12; in test [3], 37.

As for `CN1CC2C(=O)N(c3ccc([N+](=O)[O-])cc3)C(=O)C2C12C(=O)c1ccccc1C2=O` (stereo not given), the IC50 in the test with Vero was more than 6.25 µg/mL. In test [1], this compound showed a pIC50 of 4.33, an IC90 of 66.5 µM and an MIC of 100 µM (≈ 40.5 µg/mL). In addition, the pIC50 against Acetylcholinesterase is 5.18.

Regarding `NCC[C@H](O)C(=O)N[C@@H]1C[C@H](N)[C@@H](O[C@H]2O[C@H](CN)[C@@H](O)[C@H](O)[C@H]2O)[C@H](O)[C@H]1O[C@H]1O[C@H](CO)[C@@H](O)[C@H](N)[C@H]1O` [AMIKACIN], the IC50 in the test with Vero is more than 6.25 µg/mL. Besides, in test [1], it took 0.08 µM to reach the 90% level (IC90) and the MIC was 0.16 µM (≈ 0.0937 µg/mL).

For `N[C@@H]1CONC1=O` [CYCLOSERINE], the IC50 in the test on Vero is more than 6.25 µg/mL. For the same compound, the lowest concentration to inhibit growth in test [1] (MIC) was 25 µM (≈ 2.55 µg/mL).

For the compound `CC[C@@H](CO)NCCN[C@@H](CC)CO` [ETHAMBUTOL], the IC50 in the test with Vero was more than 6.25 µg/mL. In test [1], this compound had a pIC50 of more than 5.81 and a minimal inhibitory concentration (MIC) of 12.5 µM (≈ 2.55 µg/mL).

On to `NNC(=O)c1ccncc1` [ISONIAZID], for which, in the test with Vero, the IC50 was more than 6.25 µg/mL. Besides, in test [1], the IC90 is 0.29 µM and the MIC was 0.31 µM (≈ 0.0425 µg/mL).

As to `CCc1nc(N)nc(N)c1-c1ccc(Cl)cc1` [PYRIMETHAMINE], the IC50 in the test on Vero was more than 6.25 µg/mL. In test [1], this compound displayed an MIC of 100 µM (≈ 24.9 µg/mL).
